Data reported in ChEMBL document CHEMBL4138146, “A Schmidt rearrangement-mediated synthesis of novel tetrahydro-benzo[1,4]diazepin-5-ones as potential anticancer and antiprotozoal agents” (Eur J Med Chem, 2017).

Test system: K562
Experiment: Growth inhibition of human K562 cells assessed as cell growth at 10 uM incubated for 48 hrs by sulforhodamine B assay relative to control
Type: functional
Details: K562, 48 h, read-out: Activity

For `O=C1CC(c2cc3ccc4ccccc4c3[nH]c2=O)Nc2ccccc21` (configuration not stated), the growth at 10 µM was 87.2%.

Test system: EKVX
Experiment: Growth inhibition of human EKVX cells assessed as cell growth at 10 uM incubated for 48 hrs by sulforhodamine B assay relative to control
Type: functional
Details: read-out: Activity

`O=C1CC(c2cc3ccc4ccccc4c3[nH]c2=O)Nc2ccccc21` (configuration not stated) was tested, and the growth at 10 µM was 93.8%.

Test system: HCT-15
Experiment: Growth inhibition of human HCT15 cells assessed as cell growth at 10 uM incubated for 48 hrs by sulforhodamine B assay relative to control
Type: functional
Details: HCT-15, 48 h, read-out: Activity

In the case of `O=C1CC(c2cc3ccc4ccccc4c3[nH]c2=O)Nc2ccccc21` (configuration not stated), the growth at 10 µM is reported as 96.5%.

Test system: SNB-75
Experiment: Growth inhibition of human SNB75 cells assessed as cell growth at 10 uM incubated for 48 hrs by sulforhodamine B assay relative to control
Type: functional
Details: SNB-75, 48 h, read-out: Activity

First: CCCCOc1nc2ccc(OC)cc2cc1C1CNC(=O)c2ccccc2N1 (configuration not stated)
Second: O=C1CC(c2cc3ccc4ccccc4c3[nH]c2=O)Nc2ccccc21 (configuration not stated)
The growth at 10 µM of the first is lower: 89.5% for the first, 102% for the second.

Test system: M14
Experiment: Growth inhibition of human M14 cells assessed as cell growth at 10 uM incubated for 48 hrs by sulforhodamine B assay relative to control
Type: functional
Details: M14, 48 h, read-out: Activity

First: CCCCOc1nc2ccc(OC)cc2cc1C1CNC(=O)c2ccccc2N1 (configuration not stated)
Second: O=C1CC(c2cc3ccc4ccccc4c3[nH]c2=O)Nc2ccccc21 (configuration not stated)
The growth at 10 µM of the first is higher: 99% for the first, 96.4% for the second.

Test system: SF-295
Experiment: Growth inhibition of human SF295 cells assessed as cell growth at 10 uM incubated for 48 hrs by sulforhodamine B assay relative to control
Type: functional
Details: SF-295, 48 h, read-out: Activity

In the case of `O=C1CC(c2cc3ccc4ccccc4c3[nH]c2=O)Nc2ccccc21` (configuration not stated), the growth at 10 µM is reported as 105%.

Test system: LOX IMVI
Experiment: Growth inhibition of human LOXIMVI cells assessed as cell growth at 10 uM incubated for 48 hrs by sulforhodamine B assay relative to control
Type: functional
Details: read-out: Activity

First: CCCCOc1nc2ccc(OC)cc2cc1C1CNC(=O)c2ccccc2N1 (configuration not stated)
Second: O=C1CC(c2cc3ccc4ccccc4c3[nH]c2=O)Nc2ccccc21 (configuration not stated)
The growth at 10 µM of the first is higher: 104% for the first, 84% for the second.

Test system: SK-MEL-5
Experiment: Growth inhibition of human SK-MEL-5 cells assessed as cell growth at 10 uM incubated for 48 hrs by sulforhodamine B assay relative to control
Type: functional
Details: SK-MEL-5, 48 h, read-out: Activity

Compared with `CCCCOc1nc2ccc(OC)cc2cc1C1CNC(=O)c2ccccc2N1` (configuration not stated), `O=C1CC(c2cc3ccc4ccccc4c3[nH]c2=O)Nc2ccccc21` (configuration not stated) is higher in growth at 10 µM: 86.9% for the first, 98.9% for the second.

Test system: NCI-H460
Experiment: Growth inhibition of human NCI-H460 cells assessed as cell growth at 10 uM incubated for 48 hrs by sulforhodamine B assay relative to control
Type: functional
Details: NCI-H460, 48 h, read-out: Activity

First: CCCCOc1nc2ccc(OC)cc2cc1C1CNC(=O)c2ccccc2N1 (configuration not stated)
Second: O=C1CC(c2cc3ccc4ccccc4c3[nH]c2=O)Nc2ccccc21 (configuration not stated)
The growth at 10 µM of the first is higher: 97.2% for the first, 81.1% for the second.

Test system: SF-268
Experiment: Growth inhibition of human SF268 cells assessed as cell growth at 10 uM incubated for 48 hrs by sulforhodamine B assay relative to control
Type: functional
Details: SF-268, 48 h, read-out: Activity

First: CCCCOc1nc2ccc(OC)cc2cc1C1CNC(=O)c2ccccc2N1 (configuration not stated)
Second: O=C1CC(c2cc3ccc4ccccc4c3[nH]c2=O)Nc2ccccc21 (configuration not stated)
The growth at 10 µM of the first is higher: 99% for the first, 96.8% for the second.

Test system: Hs-578T
Experiment: Growth inhibition of human Hs 578T cells assessed as cell growth at 10 uM incubated for 48 hrs by sulforhodamine B assay relative to control
Type: functional
Details: read-out: Activity

Compared with `CCCCOc1nc2ccc(OC)cc2cc1C1CNC(=O)c2ccccc2N1` (configuration not stated), `O=C1CC(c2cc3ccc4ccccc4c3[nH]c2=O)Nc2ccccc21` (configuration not stated) is lower in growth at 10 µM: 105% for the first, 77.3% for the second.

Test system: MOLT-4
Experiment: Growth inhibition of human MOLT4 cells assessed as cell growth at 10 uM incubated for 48 hrs by sulforhodamine B assay relative to control
Type: functional
Details: MOLT-4, 48 h, read-out: Activity

`O=C1CC(c2cc3ccc4ccccc4c3[nH]c2=O)Nc2ccccc21` (configuration not stated) gave a growth at 10 µM of 89.5%.

Test system: MDA-MB-435
Experiment: Growth inhibition of human MDA-MB-435 cells assessed as cell growth at 10 uM incubated for 48 hrs by sulforhodamine B assay relative to control
Type: functional
Details: MDA-MB-435, 48 h, read-out: Activity

First: CCCCOc1nc2ccc(OC)cc2cc1C1CNC(=O)c2ccccc2N1 (configuration not stated)
Second: O=C1CC(c2cc3ccc4ccccc4c3[nH]c2=O)Nc2ccccc21 (configuration not stated)
The growth at 10 µM of the first is lower: 104% for the first, 109% for the second.

Test system: HL-60(TB)
Experiment: Growth inhibition of human HL-60(TB) cells assessed as cell growth at 10 uM incubated for 48 hrs by sulforhodamine B assay relative to control
Type: functional
Details: HL-60, 48 h, read-out: Activity

`O=C1CC(c2cc3ccc4ccccc4c3[nH]c2=O)Nc2ccccc21` (configuration not stated) showed a growth at 10 µM of 100%.

Test system: SK-MEL-2
Experiment: Growth inhibition of human SK-MEL-2 cells assessed as cell growth at 10 uM incubated for 48 hrs by sulforhodamine B assay relative to control
Type: functional
Details: SK-MEL-2, 48 h, read-out: Activity

Compared with `CCCCOc1nc2ccc(OC)cc2cc1C1CNC(=O)c2ccccc2N1` (configuration not stated), `O=C1CC(c2cc3ccc4ccccc4c3[nH]c2=O)Nc2ccccc21` (configuration not stated) is higher in growth at 10 µM: 88.7% for the first, 96.2% for the second.

Test system: HCC 2998
Experiment: Growth inhibition of human HCC2998 cells assessed as cell growth at 10 uM incubated for 48 hrs by sulforhodamine B assay relative to control
Type: functional
Details: HCC 2998, 48 h, read-out: Activity

Going from `CCCCOc1nc2ccc(OC)cc2cc1C1CNC(=O)c2ccccc2N1` (configuration not stated) to `O=C1CC(c2cc3ccc4ccccc4c3[nH]c2=O)Nc2ccccc21` (configuration not stated), the growth at 10 µM falls from 123% to 108%.

Test system: DU-145
Experiment: Growth inhibition of human DU145 cells assessed as cell growth at 10 uM incubated for 48 hrs by sulforhodamine B assay relative to control
Type: functional
Details: DU-145, 48 h, read-out: Activity

Going from `CCCCOc1nc2ccc(OC)cc2cc1C1CNC(=O)c2ccccc2N1` (configuration not stated) to `O=C1CC(c2cc3ccc4ccccc4c3[nH]c2=O)Nc2ccccc21` (configuration not stated), the growth at 10 µM falls from 108% to 84.3%.

Test system: SR
Experiment: Growth inhibition of human SR cells assessed as cell growth at 10 uM incubated for 48 hrs by sulforhodamine B assay relative to control
Type: functional
Details: read-out: Activity

Compound `O=C1CC(c2cc3ccc4ccccc4c3[nH]c2=O)Nc2ccccc21` (configuration not stated) has a growth at 10 µM of 11.1%.

Test system: MCF7
Experiment: Growth inhibition of human MCF7 cells assessed as cell growth at 10 uM incubated for 48 hrs by sulforhodamine B assay relative to control
Type: functional
Details: MCF7, 48 h, read-out: Activity

In the case of `O=C1CC(c2cc3ccc4ccccc4c3[nH]c2=O)Nc2ccccc21` (configuration not stated), the growth at 10 µM is reported as 76.2%.

Test system: CAKI-1
Experiment: Growth inhibition of human Caki1 cells assessed as cell growth at 10 uM incubated for 48 hrs by sulforhodamine B assay relative to control
Type: functional
Details: CAKI-1, 48 h, read-out: Activity

Compared with `CCCCOc1nc2ccc(OC)cc2cc1C1CNC(=O)c2ccccc2N1` (configuration not stated), `O=C1CC(c2cc3ccc4ccccc4c3[nH]c2=O)Nc2ccccc21` (configuration not stated) is higher in growth at 10 µM: 77.7% for the first, 86% for the second.

Test system: BT-549
Experiment: Growth inhibition of human BT549 cells assessed as cell growth at 10 uM incubated for 48 hrs by sulforhodamine B assay relative to control
Type: functional
Details: BT-549, 48 h, read-out: Activity

Going from `CCCCOc1nc2ccc(OC)cc2cc1C1CNC(=O)c2ccccc2N1` (configuration not stated) to `O=C1CC(c2cc3ccc4ccccc4c3[nH]c2=O)Nc2ccccc21` (configuration not stated), the growth at 10 µM falls from 98.1% to 69.4%.

Test system: PC-3
Experiment: Growth inhibition of human PC3 cells assessed as cell growth at 10 uM incubated for 48 hrs by sulforhodamine B assay relative to control
Type: functional
Details: PC-3, 48 h, read-out: Activity

First: CCCCOc1nc2ccc(OC)cc2cc1C1CNC(=O)c2ccccc2N1 (configuration not stated)
Second: O=C1CC(c2cc3ccc4ccccc4c3[nH]c2=O)Nc2ccccc21 (configuration not stated)
The growth at 10 µM of the first is lower: 86.6% for the first, 102% for the second.

Test system: MDA-MB-231
Experiment: Growth inhibition of human MDA-MB-231 cells assessed as cell growth at 10 uM incubated for 48 hrs by sulforhodamine B assay relative to control
Type: functional
Details: MDA-MB-231, 48 h, read-out: Activity

Compared with `CCCCOc1nc2ccc(OC)cc2cc1C1CNC(=O)c2ccccc2N1` (configuration not stated), `O=C1CC(c2cc3ccc4ccccc4c3[nH]c2=O)Nc2ccccc21` (configuration not stated) is lower in growth at 10 µM: 83.6% for the first, 69.3% for the second.

Test system: 786-0
Experiment: Growth inhibition of human 786-0 cells assessed as cell growth at 10 uM incubated for 48 hrs by sulforhodamine B assay relative to control
Type: functional
Details: 786-0, 48 h, read-out: Activity

Compared with `CCCCOc1nc2ccc(OC)cc2cc1C1CNC(=O)c2ccccc2N1` (configuration not stated), `O=C1CC(c2cc3ccc4ccccc4c3[nH]c2=O)Nc2ccccc21` (configuration not stated) is lower in growth at 10 µM: 96.6% for the first, 95.6% for the second.

Test system: RPMI-8226
Experiment: Growth inhibition of human RPMI8226 cells assessed as cell growth at 10 uM incubated for 48 hrs by sulforhodamine B assay relative to control
Type: functional
Details: RPMI-8226, 48 h, read-out: Activity

Compared with `CCCCOc1nc2ccc(OC)cc2cc1C1CNC(=O)c2ccccc2N1` (configuration not stated), `O=C1CC(c2cc3ccc4ccccc4c3[nH]c2=O)Nc2ccccc21` (configuration not stated) is higher in growth at 10 µM: 88.9% for the first, 99.7% for the second.
